20 compounds from US9981909B2 (Janssen Pharmaceutica NV, priority 2008, dated 2018) can be followed below.

The target of one assay is rat 5-HT7 receptor (Rattus norvegicus (Rat), UniProt P32305). As to the kind of experiment: r5-HT7 binding assay, competitive radioligand binding with [3H]5-CT. An outline of the steps:
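Membranes from HEK-293 cells recombinantly expressing rat 5-HT7 were used for competitive radioligand binding with [3H]5-CT, with radioactivity read-out and Ki values derived. In the functional cAMP immunoassay, stably transfected HEK-293 cells were pre-incubated with compound for 10 minutes, challenged with 100 nM 5-CT for 20 minutes, then lysed.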

For another assay, the target named is r5-HT7 receptor (Rattus norvegicus (Rat), UniProt P32305). The assay is described as follows: HitHunter cAMP assay, antagonist testing against 100 nM 5-CT. In kind it is cell-based. An outline of the steps:
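For antagonism, cells expressing the rat receptor are pretreated with compound (10 min) and stimulated with 100 nM 5-CT (20 min). Lysates are assayed for cAMP by competitive immunoassay. Binding uses [3H]5-CT competition on HEK-293 membranes, giving Ki.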
(In general: cAMP levels reflect the balance of adenylyl cyclase and phosphodiesterase activity.)

For a further assay, the target named is human SERT (Homo sapiens (Human), UniProt P31645). The assay is described as follows: human SERT binding assay with [3H]-citalopram on HEK-293 membranes. The conditions noted are these: read-out: hSERT binding Ki.
A further assay deals with h5HT2A (Homo sapiens (Human), UniProt P28223). As to the kind of experiment: h5HT2A binding.
For another assay, the target named is h5HT2B (Homo sapiens (Human), UniProt P41595). The assay is described as follows: h5HT2B binding.
Another assay has as its target h5HT2C (Homo sapiens (Human), UniProt P28335). As to the kind of experiment: h5HT2C binding.
The target in the next assay is h5-HT6 (Homo sapiens (Human), UniProt P50406). The assay is described as follows: h5-HT6 binding assay with [3H]LSD on HEK-293 membranes. The conditions noted are these: read-out: h5HT6 binding Ki. Here is the method:
Receptor binding was performed using membrane fractions prepared from the HEK-293 cell line recombinantly expressing rat 5-HT7 receptors (NCBI accession NM_022938). Compound affinity for the rat 5-HT7 receptor subtype was evaluated by competitive radioligand binding assays using 5-carboxamido[^3H]tryptamine ([^3H]5-CT) (Amersham Biosciences, cat. 90000403) detection. HitHunter™ cAMP assays are in-vitro based competitive immunoassays. The assay was performed on the HEK-293 cell line stably transfected with r5-HT7 receptor. Cells were pre-incubated with test compounds for 10 minutes. For antagonist testing, the cells were then challenged with 100 nM 5-CT for 20 minutes. Cells were then lysed and cAMP measured according to manufacturers protocol (Amersham, cat. NET791250UC) or [^3H]mesulergine (Amersham, cat. TRK1041). The assay was performed on membranes prepared from HEK-293 cells stably transfected with h5-HT6. Following centrifugation, membranes were resuspended and incubated for 60 min at room temperature with 1.7 nM [^3H]LSD in the presence of increasing concentration of test compounds. Nonspecific binding was defined in the presence of 10 μM clozapine (Tocris, cat. TRK1068). Homogenized HEK-293 membranes expressing the human SERT were incubated in 50 mM Tris-HCl (pH 7.5), 120 mM NaCl, 5 mM KCl with [^3H]-citalopram (3 nM) with or without test compounds. Nonspecific binding was determined in the presence of 10 μM fluoxetine. Radioactivity readouts and Ki values were performed as previously described for r5-HT7. […] Compounds were assayed in their free form or as salts, as indicated in the Examples section above.

The mark [1] stands for this setting: rat 5-HT7 receptor, HEK-293 membranes.
Where [2] appears, read: antagonist testing, 100 nM 5-CT challenge, HEK-293 r5-HT7, read-out: R5HT7 cAMP pKb (converted).
Where [3] appears, read: h5-HT6, [3H]LSD, HEK-293 membranes.

Where a name gives a salt, the structure may show the parent alone. Read-outs that look alike come from different tables or passages of the source.

Sequence of human SERT (P31645 whole entry): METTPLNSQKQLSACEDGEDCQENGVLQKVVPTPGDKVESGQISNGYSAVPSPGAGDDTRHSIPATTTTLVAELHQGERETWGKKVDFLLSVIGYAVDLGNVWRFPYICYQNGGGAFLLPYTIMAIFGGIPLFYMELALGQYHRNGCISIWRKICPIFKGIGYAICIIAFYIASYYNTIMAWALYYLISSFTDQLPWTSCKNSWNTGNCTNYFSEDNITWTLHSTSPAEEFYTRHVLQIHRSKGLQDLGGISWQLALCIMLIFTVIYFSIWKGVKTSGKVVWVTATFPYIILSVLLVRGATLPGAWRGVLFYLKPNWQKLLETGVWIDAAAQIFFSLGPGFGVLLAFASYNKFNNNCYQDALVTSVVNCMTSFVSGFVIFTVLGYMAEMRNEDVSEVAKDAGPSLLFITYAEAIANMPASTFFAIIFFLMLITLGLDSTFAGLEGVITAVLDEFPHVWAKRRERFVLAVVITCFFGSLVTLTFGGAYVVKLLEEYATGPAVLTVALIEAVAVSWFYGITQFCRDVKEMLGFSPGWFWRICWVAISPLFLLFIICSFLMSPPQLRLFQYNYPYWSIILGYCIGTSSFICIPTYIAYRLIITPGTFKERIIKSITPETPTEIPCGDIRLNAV
Sequence of h5HT2C (P28335 33-458): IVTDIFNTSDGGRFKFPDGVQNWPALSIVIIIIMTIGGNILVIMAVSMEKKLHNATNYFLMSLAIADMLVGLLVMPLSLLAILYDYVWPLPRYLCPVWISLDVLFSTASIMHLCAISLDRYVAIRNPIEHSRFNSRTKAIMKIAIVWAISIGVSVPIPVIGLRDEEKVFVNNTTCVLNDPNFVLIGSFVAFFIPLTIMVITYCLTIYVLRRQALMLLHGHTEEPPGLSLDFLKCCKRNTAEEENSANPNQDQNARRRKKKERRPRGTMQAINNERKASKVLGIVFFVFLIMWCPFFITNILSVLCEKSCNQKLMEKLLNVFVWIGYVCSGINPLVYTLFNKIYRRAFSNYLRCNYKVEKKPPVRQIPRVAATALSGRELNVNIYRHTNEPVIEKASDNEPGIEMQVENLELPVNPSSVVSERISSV
Sequence of h5HT2B (P41595 whole entry): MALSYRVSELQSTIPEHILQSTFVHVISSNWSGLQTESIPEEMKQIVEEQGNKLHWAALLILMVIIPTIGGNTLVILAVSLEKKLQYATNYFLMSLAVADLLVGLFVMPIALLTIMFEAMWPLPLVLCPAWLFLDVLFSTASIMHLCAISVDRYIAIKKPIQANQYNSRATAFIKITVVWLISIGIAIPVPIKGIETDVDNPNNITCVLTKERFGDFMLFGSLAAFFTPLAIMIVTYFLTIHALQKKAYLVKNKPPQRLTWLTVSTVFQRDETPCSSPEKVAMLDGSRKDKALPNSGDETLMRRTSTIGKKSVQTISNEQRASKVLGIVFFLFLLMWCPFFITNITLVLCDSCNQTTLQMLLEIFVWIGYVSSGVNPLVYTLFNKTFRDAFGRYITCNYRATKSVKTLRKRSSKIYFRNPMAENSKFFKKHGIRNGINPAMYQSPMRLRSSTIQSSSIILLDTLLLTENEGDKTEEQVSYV
Sequence of r5-HT7 receptor (P32305 1-435): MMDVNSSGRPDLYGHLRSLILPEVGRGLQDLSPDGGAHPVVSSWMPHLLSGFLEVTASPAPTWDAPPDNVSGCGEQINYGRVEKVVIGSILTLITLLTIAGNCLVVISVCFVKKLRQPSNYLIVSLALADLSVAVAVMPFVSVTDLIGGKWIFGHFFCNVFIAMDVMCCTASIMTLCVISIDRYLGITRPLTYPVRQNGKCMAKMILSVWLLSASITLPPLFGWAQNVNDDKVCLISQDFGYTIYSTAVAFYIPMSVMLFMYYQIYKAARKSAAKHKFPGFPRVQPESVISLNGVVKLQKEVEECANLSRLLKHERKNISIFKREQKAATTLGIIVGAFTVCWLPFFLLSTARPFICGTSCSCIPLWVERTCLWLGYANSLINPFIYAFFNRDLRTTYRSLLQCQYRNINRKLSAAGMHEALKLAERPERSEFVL
Sequence of rat 5-HT7 receptor (P32305 1-435): as above
Sequence of h5HT2A (P28223 whole entry): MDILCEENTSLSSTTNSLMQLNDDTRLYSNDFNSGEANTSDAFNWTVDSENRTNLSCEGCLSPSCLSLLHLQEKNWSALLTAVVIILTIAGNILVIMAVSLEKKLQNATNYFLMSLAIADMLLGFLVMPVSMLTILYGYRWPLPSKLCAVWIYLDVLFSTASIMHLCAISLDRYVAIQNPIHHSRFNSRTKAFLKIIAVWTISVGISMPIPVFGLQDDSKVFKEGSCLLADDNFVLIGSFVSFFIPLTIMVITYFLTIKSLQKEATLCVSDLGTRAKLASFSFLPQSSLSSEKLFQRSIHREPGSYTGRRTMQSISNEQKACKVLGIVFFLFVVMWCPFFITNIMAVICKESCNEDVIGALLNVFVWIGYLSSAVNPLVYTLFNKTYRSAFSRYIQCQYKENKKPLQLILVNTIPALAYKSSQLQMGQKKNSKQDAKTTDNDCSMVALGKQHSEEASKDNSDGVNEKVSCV
Sequence of h5-HT6 (P50406 whole entry): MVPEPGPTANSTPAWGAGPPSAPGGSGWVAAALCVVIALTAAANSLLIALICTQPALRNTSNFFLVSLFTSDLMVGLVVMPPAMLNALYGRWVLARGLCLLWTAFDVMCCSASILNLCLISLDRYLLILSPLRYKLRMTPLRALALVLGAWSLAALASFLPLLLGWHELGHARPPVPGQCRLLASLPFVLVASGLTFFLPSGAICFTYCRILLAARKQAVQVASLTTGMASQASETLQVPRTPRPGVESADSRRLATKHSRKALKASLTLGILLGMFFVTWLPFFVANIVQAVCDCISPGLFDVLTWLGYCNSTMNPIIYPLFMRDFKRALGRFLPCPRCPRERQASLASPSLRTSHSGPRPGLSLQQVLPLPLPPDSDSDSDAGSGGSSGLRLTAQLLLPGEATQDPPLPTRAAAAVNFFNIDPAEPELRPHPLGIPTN

The Ki is the dissociation constant of the complex between target and ligand, obtained from inhibition or displacement. With `FC(F)(F)c1cccc(COc2ccc(Cl)cc2OC2CNC2)n1` [Example 79, 2-[2-(Azetidin-3-yloxy)-4-chloro-phenoxymethyl]-6-trifluoromethyl-pyridine], the inhibitory constant (Ki) stood at 26 nM at rat 5-HT7 receptor (setting [1]); 3 nM at human SERT; 69 nM at h5HT2A; 248 nM at h5HT2B; 290 nM on h5HT2C. For the same compound, the Kb on r5-HT7 receptor (setting [2]) was 50.1 nM.
Turning to `C[C@@H](Oc1ccc(C(F)(F)F)cc1OC1CNC1)c1cccc(C(F)(F)F)c1` (stereo in doubt) [Example 200, 3-[5-Trifluoromethyl-2-[1-(3-trifluoromethyl-phenyl)-ethoxy]-phenoxy]-azetidine], the Ki on rat 5-HT7 receptor (setting [1]) is 31 nM; on human SERT it was 224 nM; on h5HT2A, 605 nM; on h5HT2B it was 7570 nM; at h5HT2C, 5000 nM. Besides, the Kb on r5-HT7 receptor (setting [2]) is 158 nM.
As to `Clc1ccccc1COc1ccc(Br)cc1OC1CNC1` [Example 15, 3-[5-Bromo-2-(2-chloro-benzyloxy)-phenoxy]-azetidine trifluoroacetate], the Ki was 17 nM at rat 5-HT7 receptor (setting [1]), 45 nM at h5-HT6 (setting [3]) and 5 nM at human SERT. For the same compound, the Kb on r5-HT7 receptor (setting [2]) was 631 nM.
In the case of `FC(F)(F)c1ccc(COc2ccc(Cl)cc2OC2CNC2)o1` [Example 54, 3-[5-Chloro-2-(5-trifluoromethyl-furan-2-ylmethoxy)-phenoxy]-azetidine], the results for the inhibition constant Ki at rat 5-HT7 receptor (setting [1]), at h5-HT6 (setting [3]) and on human SERT were 6 nM, 77 nM and 28 nM, respectively. For the same compound, the Kb on r5-HT7 receptor (setting [2]) is 7.94 nM.
Take `Clc1cccc(COc2ccc(Cl)cc2OC2CNC2)c1` [Example 37, 3-[5-Chloro-2-(3-chloro-benzyloxy)-phenoxy]-azetidine]: the Ki on rat 5-HT7 receptor (setting [1]) was 8 nM; at h5-HT6 (setting [3]), 89 nM; on human SERT, 7 nM. On r5-HT7 receptor (setting [2]), the Kb was 126 nM.
With `FC(F)(F)c1ccc2c(c1)C(Oc1ccc(Cl)cc1OC1CNC1)CC2` (stereo not shown) [Example 160, 3-[5-Chloro-2-(6-trifluoromethyl-indan-1-yloxy)-phenoxy]-azetidine], the Ki at rat 5-HT7 receptor (setting [1]) came to 15 nM; on human SERT, 210 nM; at h5HT2A it was 5 nM; on h5HT2B, 25 nM; on h5HT2C, 146 nM. At r5-HT7 receptor (setting [2]), the Kb is 5.01 nM.
As for `Cc1ccc2c(c1)C(Oc1ccc(Cl)cc1OC1CNC1)CC2` (racemic) [Example 158, (±)-3-[5-Chloro-2-(6-methyl-indan-1-yloxy)-phenoxy]-azetidine], the inhibition constant Ki at rat 5-HT7 receptor (setting [1]) came to 15 nM; at human SERT it was 67 nM; on h5HT2A it was 8 nM; on h5HT2B it was 36 nM; on h5HT2C it was 146 nM. Besides, at r5-HT7 receptor (setting [2]), the Kb was 10 nM.
For the compound `Clc1ccc(OCC2CCCCC2)c(OC2CNC2)c1` [Example 73, 3-(5-Chloro-2-cyclohexylmethoxy-phenoxy)-azetidine trifluoroacetate], the inhibition constant (Ki) at rat 5-HT7 receptor (setting [1]) was determined as 23 nM; on h5-HT6 (setting [3]), 12 nM. The Kb on r5-HT7 receptor was 251 nM.
For `FC(F)(F)c1ccc(OCc2ccccc2)c(OC2CNC2)c1` [Example 201, hydrochloride], the Ki amounted to 31 nM at rat 5-HT7 receptor (setting [1]); 56 nM at human SERT; 67 nM on h5HT2A; 184 nM on h5HT2B; 498 nM at h5HT2C. For the same compound, the Kb at r5-HT7 receptor (setting [2]) was 50.1 nM.
For the compound `Clc1ccc(OC2CCc3ccc(Cl)cc32)c(OC2CNC2)c1` (racemic) [Example 159, (±)-3-[5-Chloro-2-(6-chloro-indan-1-yloxy)-phenoxy]-azetidine], the inhibition constant (Ki) stood at 17 nM on rat 5-HT7 receptor (setting [1]); 21 nM on human SERT; 6 nM at h5HT2A; 41 nM at h5HT2B; 196 nM at h5HT2C. Besides, the Kb on r5-HT7 receptor (setting [2]) was 7.94 nM.
`Fc1cccc(COc2ccc(Br)cc2OC2CNC2)c1` [Example 17, 3-[5-Bromo-2-(3-fluoro-benzyloxy)-phenoxy]-azetidine trifluroacetate]: the inhibitory constant (Ki) stood at 10 nM on rat 5-HT7 receptor (setting [1]), 39 nM on h5-HT6 (setting [3]) and 4 nM at human SERT. In addition, the Kb at r5-HT7 receptor (setting [2]) was 50.1 nM.
In the case of `FC(F)(F)c1ccc(OCc2ccc(C(F)(F)F)o2)c(OC2CNC2)c1` [Example 199, 3-[5-Trifluoromethyl-2-(5-trifluoromethyl-furan-2-ylmethoxy)-phenoxy]-azetidine], the inhibitory constant (Ki) stood at 18 nM at rat 5-HT7 receptor (setting [1]); 128 nM at human SERT; 103 nM at h5HT2A; 1220 nM on h5HT2B; 526 nM at h5HT2C. For the same compound, at r5-HT7 receptor (setting [2]), the Kb was 39.8 nM.
For the compound `FC(F)(F)c1ccc(COc2ccc(Br)cc2OC2CNC2)o1` [Example 10, 3-[5-Bromo-2-(5-trifluoromethyl-furan-2-ylmethoxy)-phenoxy]-azetidine], the results for the Ki on rat 5-HT7 receptor (setting [1]), at h5-HT6 (setting [3]) and on human SERT were 7 nM, 50 nM and 39 nM, respectively. For the same compound, the Kb at r5-HT7 receptor (setting [2]) is 6.31 nM.
With `Clc1cccc(COc2ccc(Br)cc2OC2CCNCC2)c1` [Example 65, 4-[5-Bromo-2-(3-chloro-benzyloxy)-phenoxy]-piperidine], the values for the inhibition constant Ki at rat 5-HT7 receptor (setting [1]), on h5-HT6 (setting [3]) and on human SERT were 11 nM, 41 nM and 14 nM, respectively. Further, the Kb at r5-HT7 receptor (setting [2]) was 126 nM.
For the compound `Brc1ccc(Oc2ccccc2)c(OC2CNC2)c1` [Example 244, 3-(5-Bromo-2-phenoxy-phenoxy)-azetidine], the Ki is 20 nM at rat 5-HT7 receptor (rat 5-HT7, HEK-293 membranes); 46 nM at h5-HT6 (h5-HT6, HEK-293 membranes, [3H]LSD); 5000 nM at human SERT. Further, the Kb at r5-HT7 receptor (setting [2]) was 251 nM.
Consider `FC(F)(COc1ccc(Cl)cc1OC1CNC1)c1ccccc1` [Example 184, 3-[5-Chloro-2-(2,2-difluoro-2-phenyl-ethoxy)-phenoxy]-azetidine], for which the Ki turned out to be 23 nM at rat 5-HT7 receptor (setting [1]); 124 nM at human SERT; 5 nM at h5HT2A; 12 nM on h5HT2B; 38 nM at h5HT2C. Besides, on r5-HT7 receptor (setting [2]), the Kb was 50.1 nM.
For the compound `CN1CC[C@@H](Oc2cc(Cl)ccc2OCc2cccc(Cl)c2)C1` [Example 59, (R)-3-[5-Chloro-2-(3-chloro-benzyloxy)-phenoxy]-1-methyl-pyrrolidine], the Ki on rat 5-HT7 receptor (setting [1]) was 27 nM; at h5-HT6 (setting [3]) it was 84 nM; at human SERT it was 353 nM. On r5-HT7 receptor (setting [2]), the Kb was 15.8 nM.
Regarding `CN1CC(Oc2cc(Cl)ccc2OCc2cccc(Cl)c2)C1` [Example 38, 3-[5-Chloro-2-(3-chloro-benzyloxy)-phenoxy]-1-methyl-azetidine], the Ki on rat 5-HT7 receptor (setting [1]) was 6 nM; on h5-HT6 (setting [3]), 36 nM; at human SERT, 100 nM. In addition, at r5-HT7 receptor (setting [2]), the Kb was 10 nM.
In the case of `CC(Oc1ccc(Cl)cc1OC1CNC1)c1ccc(C(F)(F)F)o1` (racemic) [Example 146, (±)-3-[5-Chloro-2-[1-(5-trifluoromethyl-furan-2-yl)-ethoxy]-phenoxy]-azetidine], the inhibition constant (Ki) was determined as 12 nM on rat 5-HT7 receptor (setting [1]), 558 nM on h5-HT6 (setting [3]) and 59 nM at human SERT. For the same compound, the Kb at r5-HT7 receptor (setting [2]) is 7.94 nM.
Take `Cc1nc(COc2ccc(Cl)cc2OC2CNC2)cs1` [Example 29, 4-[2-(Azetidin-3-yloxy)-4-chloro-phenoxymethyl]-2-methyl-thiazole]: the Ki worked out at 83 nM on rat 5-HT7 receptor (setting [1]); 27 nM at human SERT; 225 nM on h5HT2A; 529 nM on h5HT2B; 1110 nM on h5HT2C. For the same compound, the Kb on r5-HT7 receptor (setting [2]) is 126 nM.
